Legend:
[1] = system: Botryotinia fuckeliana (Botrytis cinerea); assay: Botryotinia fuckeliana (Botrytis cinerea)/Liquid Culture (Gray Mould); assay type: cell-based; conditions: liquid culture, growth inhibition photometrically 3-4 days after application, compared to untreated control
Method: Biological Examples Botryotinia fuckeliana (Botrytis cinerea)/Liquid Culture (Gray Mould)
(§1) Conidia of the fungus from cryogenic storage are directly mixed into nutrient broth (Vogels broth). After placing a (DMSO) solution of test compound into a microtiter plate (96-well format), the nutrient broth containing the fungal spores is added. The test plates are incubated at 24° C. and the inhibition of growth is determined photometrically 3-4 days after application.

[2] = system: Glomerella lagenarium (Colletotrichum lagenarium); assay: Glomerella Lagenarium (Colletotrichum Lagenarium)/Liquid Culture (Anthracnose); assay type: cell-based; conditions: Colletotrichum orbiculare, liquid culture, growth inhibition photometrically 3-4 days after application, compared to untreated control
Method: Glomerella Lagenarium (Colletotrichum Lagenarium)/Liquid Culture (Anthracnose)
as §1, with “(PDB potato dextrose” for “(Vogels”, “measured” for “determined”

[3] = system: Monographella nivalis (Microdochium nivale); assay: Monographella Nivalis (Microdochium Nivale)/Liquid Culture (Foot Rot Cereals); assay type: cell-based; conditions: liquid culture, growth inhibition photometrically 4-5 days after application, compared to untreated control
Method: Monographella Nivalis (Microdochium Nivale)/Liquid Culture (Foot Rot Cereals)
as §1, with “(PDB potato dextrose” for “(Vogels”, “4-5” for “3-4”

[4] = system: Magnaporthe grisea (Pyricularia oryzae); assay: microbe, parasite or virus in culture; assay type: cell-based; conditions: read-out: control of Magnaporthe grisea
[5] = system: Sclerotinia sclerotiorum; assay: Sclerotinia sclerotiorum/Liquid Culture (Cottony Rot); assay type: cell-based; conditions: liquid culture, growth inhibition photometrically 3-4 days after application, compared to untreated control
Method: Sclerotinia sclerotiorum/Liquid Culture (Cottony Rot)
as §1, with “Mycelia fragments of a newly grown liquid culture” for “Conidia”, “fungus” for “fungus from cryogenic storage”, “format)” for “format),”, “material” for “spores”

[6] = system: Mycosphaerella graminicola (Septoria tritici); assay: microbe, parasite or virus in culture; assay type: cell-based; conditions: Zymoseptoria tritici, read-out: control of Mycosphaerella graminicola
[7] = system: Gaeumannomyces graminis; assay: Gaeumannomyces Graminis/Liquid Culture (Take-all of Cereals); assay type: cell-based; conditions: liquid culture, growth inhibition photometrically 4-5 days after application, compared to untreated control
Method: Gaeumannomyces Graminis/Liquid Culture (Take-all of Cereals)
as §1, with “Mycelial fragments of” for “Conidia of”, “storage were” for “storage are”, “broth (PDB potato dextrose” for “broth (Vogels”, “photometrically 4-5” for “photometrically 3-4”

[8] = system: Fusarium culmorum; assay: microbe, parasite or virus in culture; assay type: cell-based; conditions: read-out: control of Fusarium culmorum

Q: For Cn1nc2c(Br)cccc2c1C1=NC(C)(C)C(O)c2ccccc21 (stereo not drawn), which melting point is on record?
A: 215 to 217 °C

Q: For Cn1nc2c(Br)cccc2c1C1=NC(C)(C)C(O)c2c(F)cccc21 (stereo not drawn), which melting point is on record?
A: 103 to 105 °C

Q: For Cn1nc2ccccc2c1C1=NC(C)(C)C(=O)c2ccccc21, which melting point is on record?
A: 169 to 170 °C

Q: With Cn1nc2ccccc2c1C1=NC(C)(C)C(Br)c2ccccc21 (stereo not drawn) as the compound, how does the melting point read?
A: 165 to 166 °C

Q: What does the source list for Cn1nc2ccccc2c1C1=NC(C)(C)Cc2ccccc21 [Compound E-2, 3,3-dimethyl-1-(2-methylindazol-3-yl)-4H-isoquinoline]?
A: inhibition of growth at 20 ppm [1]: ≥ 80%; inhibition of growth at 20 ppm [2]: ≥ 80%; inhibition of growth at 20 ppm [3]: ≥ 80%; inhibition of growth at 20 ppm [4]: ≥ 80%; inhibition of growth at 20 ppm [5]: ≥ 80%; melting point: 107 to 108 °C

Q: Which results are given for Cn1nc2c(Br)cccc2c1C1=NC(C)(C)Cc2ccccc21 [Compound E-5, 1-(7-bromo-2-methyl-indazol-3-yl)-3,3-dimethyl-4H-isoquinoline]?
A: inhibition of growth at 20 ppm [1]: ≥ 80%; inhibition of growth at 20 ppm [3]: ≥ 80%; inhibition of growth at 20 ppm [4]: ≥ 80%; inhibition of growth at 20 ppm [6]: ≥ 80%; inhibition of growth at 20 ppm [5]: ≥ 80%; melting point: 161 to 162 °C

Q: For Cn1nc2c(Br)cccc2c1C1=NC(C)(C)C(=O)c2ccccc21 [Compound E-6, 1-(7-bromo-2-methyl-indazol-3-yl)-3,3-dimethyl-isoquinolin-4-one], which inhibition of growth at 20 ppm [1] is on record?
A: ≥ 80%

Q: And the inhibition of growth at 20 ppm [3]?
A: ≥ 80%

Q: And the inhibition of growth at 20 ppm [4]?
A: ≥ 80%

Q: With Cn1nc2c(Br)cccc2c1C1=NC(C)(C)C(Br)c2ccccc21 (stereo not drawn) [Compound E-7, 4-bromo-1-(7-bromo-2-methyl-indazol-3-yl)-3,3-dimethyl-4H-isoquinoline] as the compound, how does the inhibition of growth at 20 ppm [1] read?
A: ≥ 80%

Q: For Cn1nc2c(Br)cccc2c1C1=NC(C)(C)C(C)(C)c2c(F)cccc21 [Compound E-8, 1-(7-bromo-2-methyl-indazol-3-yl)-5-fluoro-3,3,4,4-tetramethyl-isoquinoline], which inhibition of growth at 20 ppm [1] is on record?
A: ≥ 80%

Q: And the inhibition of growth at 20 ppm [2]?
A: ≥ 80%

Q: And the inhibition of growth at 20 ppm [3]?
A: ≥ 80%

Q: And the inhibition of growth at 20 ppm [4]?
A: ≥ 80%

Q: What about the inhibition of growth at 20 ppm [6] of the same compound?
A: ≥ 80%

Q: What about the inhibition of growth at 20 ppm [5] of the same compound?
A: ≥ 80%

Q: With Cn1nc2c(Br)cccc2c1C1=NC(C)(C)C(F)(F)c2ccccc21 [Compound E-10, 1-(7-bromo-2-methyl-indazol-3-yl)-4,4-difluoro-3,3-dimethyl-isoquinoline] as the compound, how does the inhibition of growth at 20 ppm [1] read?
A: ≥ 80%

Q: And the inhibition of growth at 20 ppm [2]?
A: ≥ 80%

Q: And the inhibition of growth at 20 ppm [7]?
A: ≥ 80%

Q: And the inhibition of growth at 20 ppm [3]?
A: ≥ 80%

Q: What about the inhibition of growth at 20 ppm [4] of the same compound?
A: ≥ 80%

Q: What about the inhibition of growth at 20 ppm [5] of the same compound?
A: ≥ 80%

Q: What about the melting point of the same compound?
A: 157 to 158 °C

Q: Which inhibition of growth at 20 ppm [1] does the source give for Cc1cccc2c(C3=NC(C)(C)C(F)(F)c4ccccc43)n(C)nc12 [Compound E-11, 1-(2,7-dimethylindazol-3-yl)-4,4-difluoro-3,3-dimethyl-isoquinoline] here?
A: ≥ 80%

Q: And the inhibition of growth at 20 ppm [2]?
A: ≥ 80%

Q: And the inhibition of growth at 20 ppm [8]?
A: ≥ 80%

Q: And the inhibition of growth at 20 ppm [3]?
A: ≥ 80%

Q: And the inhibition of growth at 20 ppm [4]?
A: ≥ 80%

Q: And the inhibition of growth at 20 ppm [5]?
A: ≥ 80%

Q: And the melting point?
A: 136 to 137 °C

Q: Which results are given for Cn1nc2ccccc2c1C1=NC(C)(C)C(F)(F)c2ccccc21 [Compound E-13, 4,4-difluoro-3,3-dimethyl-1-(2-methylindazol-3-yl)isoquinoline]?
A: inhibition of growth at 20 ppm [1]: ≥ 80%; inhibition of growth at 20 ppm [2]: ≥ 80%; inhibition of growth at 20 ppm [3]: ≥ 80%; inhibition of growth at 20 ppm [4]: ≥ 80%; inhibition of growth at 20 ppm [5]: ≥ 80%

Q: For CC1(C)N=C(c2n[nH]c3ccccc23)c2cccc(F)c2C1(C)C [Compound E-14, 5-fluoro-1-(1H-indazol-3-yl)-3,3,4,4-tetramethyl-isoquinoline], which inhibition of growth at 20 ppm [1] is on record?
A: ≥ 80%

Q: What about the melting point of the same compound?
A: 174 to 177 °C

Q: Which inhibition of growth at 20 ppm [1] does the source give for Cn1nc2c(Br)cccc2c1C1=NC(C)(C)Cc2c(F)cccc21 [Compound E-15, 1-(7-bromo-2-methyl-indazol-3-yl)-5-fluoro-3,3-dimethyl-4H-isoquinoline] here?
A: ≥ 80%

Q: What about the inhibition of growth at 20 ppm [3] of the same compound?
A: ≥ 80%

Q: And the inhibition of growth at 20 ppm [4]?
A: ≥ 80%

Q: And the melting point?
A: 168 to 169 °C

Q: For Cn1nc2c(Br)cccc2c1C1=NC(C)(C)C(=O)c2c(F)cccc21 [Compound E-18, 1-(7-bromo-2-methyl-indazol-3-yl)-5-fluoro-3,3-dimethyl-isoquinolin-4-one], which inhibition of growth at 20 ppm [3] is on record?
A: ≥ 80%

Q: What about the melting point of the same compound?
A: 260 to 261 °C

Q: Which results are given for Cn1nc2c(Br)cccc2c1C1=NC(C)(C)C(F)(F)c2c(F)cccc21 [Compound E-19, 1-(7-bromo-2-methyl-indazol-3-yl)-4,4,5-trifluoro-3,3-dimethyl-isoquinoline]?
A: inhibition of growth at 20 ppm [1]: ≥ 80%; inhibition of growth at 20 ppm [2]: ≥ 80%; inhibition of growth at 20 ppm [3]: ≥ 80%; inhibition of growth at 20 ppm [4]: ≥ 80%; melting point: 198 to 199 °C

Q: What does the source list for Cc1cccc2c(C3=NC(C)(C)C(F)(F)c4c(F)cccc43)n(C)nc12 [Compound E-20, 1-(2,7-dimethylindazol-3-yl)-4,4,5-trifluoro-3,3-dimethyl-isoquinoline]?
A: inhibition of growth at 20 ppm [1]: ≥ 80%; inhibition of growth at 20 ppm [2]: ≥ 80%; inhibition of growth at 20 ppm [7]: ≥ 80%; inhibition of growth at 20 ppm [3]: ≥ 80%; inhibition of growth at 20 ppm [4]: ≥ 80%; melting point: 164 to 165 °C

Q: Which results are given for Cn1nc2cc(F)ccc2c1C1=NC(C)(C)C(C)(C)c2c(F)cccc21 [Compound E-21, 5-fluoro-1-(6-fluoro-2-methyl-indazol-3-yl)-3,3,4,4-tetramethyl-isoquinoline]?
A: inhibition of growth at 20 ppm [1]: ≥ 80%; inhibition of growth at 20 ppm [2]: ≥ 80%; inhibition of growth at 20 ppm [8]: ≥ 80%; inhibition of growth at 20 ppm [3]: ≥ 80%; inhibition of growth at 20 ppm [4]: ≥ 80%; melting point: 131 to 133 °C

Q: With Cn1nc2c(Cl)c(Cl)ccc2c1C1=NC(C)(C)Cc2ccccc21 [Compound E-24, 1-(6,7-dichloro-2-methyl-indazol-3-yl)-3,3-dimethyl-4H-isoquinoline] as the compound, how does the inhibition of growth at 20 ppm [1] read?
A: ≥ 80%

Q: And the melting point?
A: 197 to 199 °C

Q: What does the source list for Cc1ccc2c(C3=NC(C)(C)C(F)(F)c4ccccc43)n(C)nc2c1C [Compound E-25, 4,4-difluoro-3,3-dimethyl-1-(2,6,7-trimethylindazol-3-yl)isoquinoline]?
A: inhibition of growth at 20 ppm [1]: ≥ 80%; inhibition of growth at 20 ppm [2]: ≥ 80%; inhibition of growth at 20 ppm [8]: ≥ 80%; inhibition of growth at 20 ppm [3]: ≥ 80%; inhibition of growth at 20 ppm [4]: ≥ 80%; inhibition of growth at 20 ppm [5]: ≥ 80%; melting point: 154 to 157 °C

Q: For Cc1c(Cl)ccc2c(C3=NC(C)(C)C(C)(C)c4c(F)cccc43)n(C)nc12 [Compound E-26, 1-(6-chloro-2,7-dimethyl-indazol-3-yl)-5-fluoro-3,3,4,4-tetramethyl-isoquinoline], which inhibition of growth at 20 ppm [1] is on record?
A: ≥ 80%

Q: And the inhibition of growth at 20 ppm [2]?
A: ≥ 80%

Q: What about the inhibition of growth at 20 ppm [3] of the same compound?
A: ≥ 80%

Q: And the inhibition of growth at 20 ppm [4]?
A: ≥ 80%

Q: What about the inhibition of growth at 20 ppm [5] of the same compound?
A: ≥ 80%

Q: And the melting point?
A: 136 to 142 °C

Q: With Cc1ccc2c(C3=NC(C)(C)C(=O)c4ccccc43)n(C)nc2c1C [Compound E-29, 3,3-dimethyl-1-(2,6,7-trimethylindazol-3-yl)isoquinolin-4-one] as the compound, how does the inhibition of growth at 20 ppm [1] read?
A: ≥ 80%

Q: What about the inhibition of growth at 20 ppm [2] of the same compound?
A: ≥ 80%

Q: And the inhibition of growth at 20 ppm [8]?
A: ≥ 80%

Q: And the inhibition of growth at 20 ppm [3]?
A: ≥ 80%

Q: And the inhibition of growth at 20 ppm [4]?
A: ≥ 80%

Q: What about the inhibition of growth at 20 ppm [5] of the same compound?
A: ≥ 80%

Q: What about the melting point of the same compound?
A: 174 to 177 °C

Q: For CC1(C)N=C(c2onc3c(Cl)cccc23)c2ccccc2C1(F)F [Compound E-31, 7-chloro-3-(4,4-difluoro-3,3-dimethyl-1-isoquinolyl)-2,1-benzoxazole], which inhibition of growth at 20 ppm [1] is on record?
A: ≥ 80%

Q: What about the inhibition of growth at 20 ppm [2] of the same compound?
A: ≥ 80%

Q: What about the inhibition of growth at 20 ppm [7] of the same compound?
A: ≥ 80%

Q: And the inhibition of growth at 20 ppm [4]?
A: ≥ 80%

Q: And the inhibition of growth at 20 ppm [5]?
A: ≥ 80%

Q: With Cc1cccc2c(C3=NC(C)(C)C(C)(C)c4c(F)cccc43)snc12 [Compound E-32, 3-(5-fluoro-3,3,4,4-tetramethyl-1-isoquinolyl)-7-methyl-2,1-benzothiazole] as the compound, how does the inhibition of growth at 20 ppm [1] read?
A: ≥ 80%

Q: And the inhibition of growth at 20 ppm [2]?
A: ≥ 80%

Q: And the inhibition of growth at 20 ppm [8]?
A: ≥ 80%

Q: And the inhibition of growth at 20 ppm [7]?
A: ≥ 80%

Q: What about the inhibition of growth at 20 ppm [3] of the same compound?
A: ≥ 80%

Q: And the inhibition of growth at 20 ppm [4]?
A: ≥ 80%

Q: And the inhibition of growth at 20 ppm [5]?
A: ≥ 80%

Q: And the melting point?
A: 96 to 98 °C
